Test results reported in the supplement of paper PMC10307832.

How the values were obtained:
Assay in all cases: relative viability (nuclei count vs DMSO), 5 days (fraction); higher = more cells survive
[1] = tested on: EPLC-272H
Procedure, shortened: (§1)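 Nuclei were stained with Hoechst during a one-step fixation (final 0.05% Triton X-100, 1% formaldehyde, 1 ug/ml Hoechst) carried out 5 days after dosing, then counted on 4× images. The cells, lung cancer lines in 1536-well plates, had been dosed by pin tool the day after seeding with one drug alone or a fixed anchor-drug dose plus five library-drug doses (not always all listed) in √10 steps. Relative viability is the nuclei count in treated wells divided by that in vehicle wells, and each value is the median of duplicate plates.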

[2] = tested on: NCI-H358
Procedure, shortened: as §1

[3] = tested on: NCI-H1793
Procedure, shortened: as §1

[4] = tested on: NCI-H647
Procedure, shortened: as §1

[5] = tested on: SW 1573
Procedure, shortened: as §1

[6] = tested on: NCI-H1734
Procedure, shortened: as §1

[7] = tested on: RERF-LC-KJ
Procedure, shortened: as §1

[8] = tested on: ABC-1
Procedure, shortened: as §1

[9] = tested on: UMC-11
Procedure, shortened: as §1

[10] = tested on: NCI-H322M
Procedure, shortened: as §1

[11] = tested on: NCI-H2347
Procedure, shortened: as §1

[12] = tested on: HCC-15
Procedure, shortened: as §1

[13] = tested on: NCI-H2009
Procedure, shortened: as §1

[14] = tested on: NCI-H1944
Procedure, shortened: as §1

[15] = tested on: LC-2-ad
Procedure, shortened: as §1

[16] = tested on: LK-2
Procedure, shortened: as §1

[17] = tested on: NCI-H838
Procedure, shortened: as §1

[18] = tested on: NCI-H1915
Procedure, shortened: as §1

[19] = tested on: NCI-H2023
Procedure, shortened: as §1

[20] = tested on: A-427
Procedure, shortened: as §1

CN1CCN(CCOc2cc(OC3CCOCC3)c3c(Nc4c(Cl)ccc5c4OCO5)ncnc3c2)CC1 [Saracatinib] + CS(=O)(=O)CCNCc1ccc(-c2ccc3ncnc(Nc4ccc(OCc5cccc(F)c5)c(Cl)c4)c3c2)o1 [Lapatinib] (partner 2 µM)
relative viability ([1]; first compound 0.02 µM): 1.01
relative viability ([1]; first compound 0.2 µM): 0.806
relative viability ([1]; first compound 0.6325 µM): 1.05
relative viability ([1]; first compound 2 µM): 0.893
relative viability ([2]; first compound 0.02 µM): 0.471
relative viability ([2]; first compound 0.2 µM): 0.535
relative viability ([2]; first compound 0.6325 µM): 0.418
relative viability ([2]; first compound 2 µM): 0.384
relative viability ([3]; first compound 0.02 µM): 0.894
relative viability ([3]; first compound 0.2 µM): 0.587
relative viability ([3]; first compound 0.6325 µM): 0.974
relative viability ([3]; first compound 2 µM): 0.76
relative viability ([4]; first compound 0.02 µM): 0.76
relative viability ([4]; first compound 0.2 µM): 0.803
relative viability ([4]; first compound 0.6325 µM): 0.894
relative viability ([4]; first compound 2 µM): 0.48
relative viability ([5]; first compound 0.02 µM): 1.27
relative viability ([5]; first compound 0.2 µM): 1.1
relative viability ([5]; first compound 0.6325 µM): 1.16
relative viability ([5]; first compound 2 µM): 1.14
relative viability ([6]; first compound 0.02 µM): 1.11
relative viability ([6]; first compound 0.6325 µM): 0.999
relative viability ([6]; first compound 2 µM): 0.777
relative viability ([7]; first compound 0.02 µM): 0.893
relative viability ([7]; first compound 0.2 µM): 0.82
relative viability ([7]; first compound 0.6325 µM): 0.881
relative viability ([7]; first compound 2 µM): 1.02
relative viability ([8]; first compound 0.02 µM): 1.16
relative viability ([8]; first compound 0.2 µM): 0.921
relative viability ([8]; first compound 0.6325 µM): 1.08
relative viability ([8]; first compound 2 µM): 0.921
relative viability ([9]; first compound 0.02 µM): 0.931
relative viability ([9]; first compound 0.2 µM): 0.763
relative viability ([9]; first compound 0.6325 µM): 0.896
relative viability ([9]; first compound 2 µM): 0.78
relative viability ([10]; first compound 0.02 µM): 0.639
relative viability ([10]; first compound 0.2 µM): 0.607
relative viability ([10]; first compound 0.6325 µM): 0.56
relative viability ([10]; first compound 2 µM): 0.486
relative viability ([11]; first compound 0.02 µM): 0.988
relative viability ([11]; first compound 0.2 µM): 0.817
relative viability ([11]; first compound 0.6325 µM): 1.12
relative viability ([11]; first compound 2 µM): 0.903
relative viability ([12]; first compound 0.02 µM): 0.859
relative viability ([12]; first compound 0.2 µM): 0.828
relative viability ([12]; first compound 0.6325 µM): 0.961
relative viability ([12]; first compound 2 µM): 0.854
relative viability ([13]; first compound 0.02 µM): 0.992
relative viability ([13]; first compound 0.2 µM): 0.889
relative viability ([13]; first compound 0.6325 µM): 1.06
relative viability ([13]; first compound 2 µM): 0.772
relative viability ([14]; first compound 0.02 µM): 0.808
relative viability ([14]; first compound 0.6325 µM): 0.872
relative viability ([14]; first compound 2 µM): 0.459
relative viability ([15]; first compound 0.02 µM): 1.06
relative viability ([15]; first compound 0.6325 µM): 0.998
relative viability ([15]; first compound 2 µM): 0.761
relative viability ([16]; first compound 0.02 µM): 0.95
relative viability ([16]; first compound 0.2 µM): 0.715
relative viability ([16]; first compound 0.6325 µM): 0.725
relative viability ([16]; first compound 2 µM): 0.504
relative viability ([17]; first compound 0.02 µM): 0.979
relative viability ([17]; first compound 0.2 µM): 0.893
relative viability ([17]; first compound 0.6325 µM): 0.842
relative viability ([17]; first compound 2 µM): 0.655
relative viability ([18]; first compound 0.02 µM): 0.987
relative viability ([18]; first compound 0.2 µM): 0.917
relative viability ([18]; first compound 0.6325 µM): 0.955
relative viability ([18]; first compound 2 µM): 0.819
relative viability ([19]; first compound 0.02 µM): 1.33
relative viability ([19]; first compound 0.2 µM): 0.701
relative viability ([19]; first compound 0.6325 µM): 0.998
relative viability ([19]; first compound 2 µM): 0.698
relative viability ([20]; first compound 0.02 µM): 0.921
relative viability ([20]; first compound 0.2 µM): 0.877
relative viability ([20]; first compound 0.6325 µM): 1.07
relative viability ([20]; first compound 2 µM): 1.04
